“And” between values parts separate entries of the source, which are not always exact repeats. Equal entries are not always repeated. Where two headings read alike, the source gives them in different places.
Legend:
WI‐26 VA4 cells [1] = assay: CellTiter‐Glo assay (cytotoxicity)
Protocol: (§1) After 24 h, the cells were incubated with various concentrations of compounds for 48 h. The level of ATP as a measure of cell viability was determined using a CellTiter‐Glo® luminescent cell viability assay kit (Promega, G7571) following the manufacturer's instructions.
(§2) WI‐26 VA4 cells were seeded at 1.2 × 10^4 cells/well in 96‐well white plates. After 24 h, the cells were incubated with the indicated concentrations of compounds for 72 h. The viability was determined as described above.

[2] = CellTiter‐Glo assay (cytotoxicity); settings: human, WI-26 VA4 cells
Protocol: as §1, §2

WI‐26 VA4 cells [3] = assay: Puromycin incorporation assay; assay type: cell-based, human; settings: for activity at 0.003 µM: WI26VA4, 3 nM; for activity at 0.01 µM: WI26VA4, 10 nM; for activity at 0.03 µM: WI26VA4, 30 nM; for activity at 0.1 µM: WI26VA4, 100 nM; for activity at 0.3 µM: WI26VA4, 300 nM; for activity at 0.5 µM: WI26VA4, 500 nM; for activity at 1 µM: WI26VA4, 1000 nM
Protocol: After being rinsed with cold PBS twice, the cells were collected and resuspended in 200 μl of the carbonate bicarbonate buffer (Sigma Aldrich, C3041‐50CAP) with protease inhibitor. The cell lysates were obtained by sonication and centrifugation at 20,000 g for 15 min at 4°C. After protein quantification using a Pierce™ BCA Protein Assay Kit (Thermo Fisher Scientific, 23225), 400 ng of the proteins was coated to ELISA plates for 18 h at 4°C. […] The plates were rinsed with the washing buffer for three times after each antibody incubation step. […] The amount of puromycin incorporated in proteins was determined by measuring the absorbance at 450 nm (reference wavelength at 620 nm). Experimental values marked in red with strikethrough text in the Figure Source Data file were excluded from the analysis. These values were determined by considering the values of biological and technical replicates under the same condition, as well as the values at the former and later chemical concentrations.

[4] = log(inhibitor) vs. response, variable slope (four parameters), concentration in nM
[5] = Homo sapiens, read-out: Puromycin, % of control, average
[6] = Homo sapiens, read-out: Puromycin, % of control, single replicate

`Cc1c(Br)cnc2c1ncn2CC(=O)C[C@H]1NCCC[C@@H]1O` [DWN11761] gave an activity at 0.01 µM (WI‐26 VA4 cells [1]; Homo sapiens, WI26VA4, read-out: CellTiter-Glo % of control, 10 nM, Experiment #1, replicates) of 104%, an activity at 0.03 µM (WI‐26 VA4 cells [1]; Homo sapiens, WI26VA4, read-out: CellTiter-Glo % of control, 30 nM, Experiment #1, replicates) of 94.7% and an activity at 0.1 µM (WI‐26 VA4 cells [1]; Homo sapiens, WI26VA4, read-out: CellTiter-Glo % of control, 100 nM, Experiment #1, replicates) of 72.9%. For the same compound, the activity at 0.3 µM (WI‐26 VA4 cells [1]; Homo sapiens, WI26VA4, read-out: CellTiter-Glo % of control, 300 nM, Experiment #1, replicates) was 56.9%, the activity at 1 µM (WI‐26 VA4 cells [1]; Homo sapiens, WI26VA4, read-out: CellTiter-Glo % of control, 1000 nM, Experiment #1, replicates) was 24.9% and the activity at 1 µM (WI‐26 VA4 cells [1]; Homo sapiens, WI26VA4, read-out: CellTiter-Glo % of control, 1000 nM, Experiment #2, replicates) was 12.4%. It also gave an activity at 3 µM (WI‐26 VA4 cells [1]; Homo sapiens, WI26VA4, read-out: CellTiter-Glo % of control, 3000 nM, Experiment #1, replicates) of 39.6%, an activity at 3 µM (WI‐26 VA4 cells [1]; Homo sapiens, WI26VA4, read-out: CellTiter-Glo % of control, 3000 nM, Experiment #2, replicates) of 30.3% and an activity at 10 µM (WI‐26 VA4 cells [1]; Homo sapiens, WI26VA4, read-out: CellTiter-Glo % of control, 10000 nM, Experiment #1, replicates) of 14.4%. For the same compound, the activity at 10 µM (WI‐26 VA4 cells [1]; Homo sapiens, WI26VA4, read-out: CellTiter-Glo % of control, 10000 nM, Experiment #2, replicates) was 8.9%, the activity at 30 µM (WI‐26 VA4 cells [1]; Homo sapiens, WI26VA4, read-out: CellTiter-Glo % of control, 30000 nM, Experiment #1, replicates) was 6.42% and the activity at 30 µM (WI‐26 VA4 cells [1]; Homo sapiens, WI26VA4, read-out: CellTiter-Glo % of control, 30000 nM, Experiment #2, replicates) was 4.58%. It also gave an activity at 100 µM (WI‐26 VA4 cells [1]; Homo sapiens, WI26VA4, read-out: CellTiter-Glo % of control, 100000 nM, Experiment #1, replicates) of 2.45%, an activity at 100 µM (WI‐26 VA4 cells [1]; Homo sapiens, WI26VA4, read-out: CellTiter-Glo % of control, 100000 nM, Experiment #2, replicates) of 1.52% and an activity at 0.0001 µM (WI‐26 VA4 cells [1]; Homo sapiens, WI26VA4, read-out: CellTiter-Glo % of control, average, 0.1 nM, average) of 102%. For the same compound, the activity at 0.0003 µM (WI‐26 VA4 cells [1]; Homo sapiens, WI26VA4, read-out: CellTiter-Glo % of control, average, 0.3 nM, average) was 105%, the activity at 0.001 µM (WI‐26 VA4 cells [1]; Homo sapiens, WI26VA4, read-out: CellTiter-Glo % of control, average, 1 nM, average) was 96.9% and the activity at 0.003 µM (WI‐26 VA4 cells [1]; Homo sapiens, WI26VA4, read-out: CellTiter-Glo % of control, average, 3 nM, average) was 82.5%. For the same compound, the activity at 0.01 µM (WI‐26 VA4 cells [1]; Homo sapiens, WI26VA4, read-out: CellTiter-Glo % of control, average, 10 nM, average) was 91.2%, the activity at 0.03 µM (WI‐26 VA4 cells [1]; Homo sapiens, WI26VA4, read-out: CellTiter-Glo % of control, average, 30 nM, average) was 86.4% and the activity at 0.1 µM (WI‐26 VA4 cells [1]; Homo sapiens, WI26VA4, read-out: CellTiter-Glo % of control, average, 100 nM, average) was 66.3%. It also gave an activity at 0.3 µM (WI‐26 VA4 cells [1]; Homo sapiens, WI26VA4, read-out: CellTiter-Glo % of control, average, 300 nM, average) of 51.8%, an activity at 1 µM (WI‐26 VA4 cells [1]; Homo sapiens, WI26VA4, read-out: CellTiter-Glo % of control, average, 1000 nM, average) of 20.8% and an activity at 3 µM (WI‐26 VA4 cells [1]; Homo sapiens, WI26VA4, read-out: CellTiter-Glo % of control, average, 3000 nM, average) of 32.6%. For the same compound, the activity at 10 µM (WI‐26 VA4 cells [1]; Homo sapiens, WI26VA4, read-out: CellTiter-Glo % of control, average, 10000 nM, average) was 11.2%, the activity at 30 µM (WI‐26 VA4 cells [1]; Homo sapiens, WI26VA4, read-out: CellTiter-Glo % of control, average, 30000 nM, average) was 5.72% and the activity at 100 µM (WI‐26 VA4 cells [1]; Homo sapiens, WI26VA4, read-out: CellTiter-Glo % of control, average, 100000 nM, average) was 1.91%. For the same compound, the “CellTiter-Glo LogIC50 (best-fit value)” value (WI‐26 VA4 cells [1]; [4]) was 2.468, the CC50 at 72 h [2] was 294 nM and the “Puromycin, % of control, single replicate” value (“Puromycin, % of control” for short) (WI‐26 VA4 cells [3]; 3 nM, 0.003 µM) was 104.76 % of control and 100.60 % of control and 105.06 % of control and 105.49 % of control and 105.21 % of control and 111.96 % of control and 104.24 % of control. For the same compound, the “Puromycin, % of control” value (WI‐26 VA4 cells [3]; 10 nM, 0.01 µM) was 99.99 % of control and 99.81 % of control and 108.66 % of control and 104.16 % of control and 106.55 % of control and 105.60 % of control and 106.56 % of control, the “Puromycin, % of control” value (WI‐26 VA4 cells [3]; 30 nM, 0.03 µM) was 101.89 % of control and 99.32 % of control and 110.82 % of control and 110.04 % of control and 108.90 % of control and 103.15 % of control and 106.42 % of control and the “Puromycin, % of control” value (WI‐26 VA4 cells [3]; 100 nM, 0.1 µM) was 112.55 % of control and 117.55 % of control and 127.48 % of control and 125.28 % of control and 125.52 % of control and 127.16 % of control and 126.25 % of control. For the same compound, the “Puromycin, % of control” value (WI‐26 VA4 cells [3]; 300 nM, 0.3 µM) was 109.98 % of control and 112.11 % of control and 119.25 % of control and 120.23 % of control and 124.85 % of control and 125.66 % of control and 106.56 % of control, the “Puromycin, % of control” value (WI‐26 VA4 cells [3]; 500 nM, 0.5 µM) was 54.77 % of control and 53.35 % of control and 56.10 % of control and 56.57 % of control and 57.43 % of control and 59.14 % of control and 54.96 % of control and the “Puromycin, % of control” value (WI‐26 VA4 cells [3]; 1000 nM, 1 µM) was 28.04 % of control and 30.25 % of control and 30.46 % of control and 30.97 % of control and 31.52 % of control and 29.73 % of control and 28.78 % of control. The “Puromycin, % of control” value (WI‐26 VA4 cells [3]; 3000 nM, 3 µM) was 0.34 % of control and -0.19 % of control and -0.45 % of control and 0.86 % of control and 1.02 % of control and 0.90 % of control and 0.51 % of control and -0.71 % of control, the “Puromycin, % of control” value (WI‐26 VA4 cells [3]; 10000 nM, 10 µM) was 0.48 % of control and -0.27 % of control and -0.54 % of control and 1.84 % of control and 0.67 % of control and 0.24 % of control and 0.33 % of control and 0.60 % of control and the “Puromycin, % of control” value (WI‐26 VA4 cells [3]; 100000 nM, 100 µM) was 0.17 % of control and 0.43 % of control and -0.14 % of control and 0.04 % of control and 0.27 % of control and -0.04 % of control and 0.92 % of control and 0.65 % of control. For the same compound, the activity at 0.003 µM (WI‐26 VA4 cells [3]; [5]) was 105%, the activity at 0.003 µM (WI‐26 VA4 cells [3]; [6]) was 104% and the activity at 0.01 µM (WI‐26 VA4 cells [3]; [5]) was 104%. It also gave an activity at 0.01 µM (WI‐26 VA4 cells [3]; [6]) of 101%, an activity at 0.03 µM (WI‐26 VA4 cells [3]; [5]) of 105% and an activity at 0.03 µM (WI‐26 VA4 cells [3]; [6]) of 103%. The activity at 0.1 µM (WI‐26 VA4 cells [3]; [5]) was 122%, the activity at 0.1 µM (WI‐26 VA4 cells [3]; [6]) was 114% and the activity at 0.3 µM (WI‐26 VA4 cells [3]; [5]) was 117%. The activity at 0.3 µM (WI‐26 VA4 cells [3]; [6]) was 115%, the activity at 0.5 µM (WI‐26 VA4 cells [3]; [5]) was 55.6% and the activity at 0.5 µM (WI‐26 VA4 cells [3]; [6]) was 52.3%. The activity at 1 µM (WI‐26 VA4 cells [3]; [5]) was 29.5%, the activity at 1 µM (WI‐26 VA4 cells [3]; [6]) was 26.2% and the activity at 3 µM (WI‐26 VA4 cells [3]; Homo sapiens, WI26VA4, 3000 nM, read-out: Puromycin, % of control, average) was 0.29%. For the same compound, the activity at 10 µM (WI‐26 VA4 cells [3]; Homo sapiens, WI26VA4, 10000 nM, read-out: Puromycin, % of control, average) was 0.42%, the activity at 30 µM (WI‐26 VA4 cells [3]; Homo sapiens, WI26VA4, 30000 nM, read-out: Puromycin, % of control, average) was -0.13% and the activity at 100 µM (WI‐26 VA4 cells [3]; Homo sapiens, WI26VA4, 100000 nM, read-out: Puromycin, % of control, average) was 0.29%. The IC50 (WI‐26 VA4 cells [3]; Homo sapiens, WI26VA4, log(inhibitor) vs. response, variable slope (four parameters), read-out: Puromycin, IC50 (best-fit value)) was 581 nM, the “Puromycin, HillSlope (best-fit value)” value (WI‐26 VA4 cells [3]; log(inhibitor) vs. response, variable slope (four parameters)) was -3.124 and the “Puromycin, LogIC50 (best-fit value)” value (WI‐26 VA4 cells [3]; [4]) was 2.764.
